Reference: patent publication US7674580B2, “Compositions and methods for the modulation of sphingolipid metabolism and/or signaling” (priority 2002, dated 2010)
Marks after values point to notes of the source that are not given here.

Experiments:
[1] = tested on: Sply^05091 homozygous flies; assay: LCB/LCBP levels in Sply^05091 homozygous flies grown on sphingosine kinase inhibitor (HPLC); assay type: in vivo, Drosophila melanogaster
Procedure: (§1) Analysis of Drosophila sphingolipids: 100 mg of flies were homogenized in 6 ml of ice cold methanol/water 1:1 (vol:vol) with a Potter-Elvehjem homogenizer with a loose pestle followed by a tight pestle until the pestle moved smoothly. Extract was further homogenized by tip sonication for 3 times 20 sec. Extract was spun at low speed and supernatant was removed and dried down in speed vac. Extract was resuspended in 500 μl of methanol containing 0.1M ammonium hydroxide and incubated for 1 hour at 37° C. Following incubation the extract was dried down in speed vac. Extract was resuspended in 500 μl of 50% methanol containing 0.1% glacial acetic acid and applied to a C18E STRATA solid phase extraction column. C18E STRATA column was washed with 50% methanol containing 0.1% glacial acetic acid followed by a wash with 100% methanol containing 0.1% glacial acetic acid. Lipids of interest were eluted with methanol/10 mM ammonium acetate, 9:1 (vol:vol). Lipids were dried down in speed vac. and o-pthaladehyde labeled for HPLC analysis as previously described (Kim, S., Fyrst, H. and Saba, J. (2000). Genetics 156, 1519-29.).

[2] = tested on: Sply^05091 homozygous flies; assay: Adult flight performance of Sply^05091 homozygous flies grown on sphingosine kinase inhibitor; assay type: in vivo, Drosophila melanogaster
wild type flies = assay: LCBP levels in wild type flies grown on sphingosine kinase inhibitor; assay type: in vivo, Drosophila melanogaster; conditions: wild type flies grown on D,L-threo-DHS
Procedure: as §1

bst1Δ cells = assay: Sphingosine sensitivity (growth) of SPL-deleted yeast; assay type: cell-based, S. cerevisiae
Text: Within certain embodiments, an in vitro assay for SPL activity may be performed using cellular extracts prepared from cells that express the polypeptide of interest. […] It has been found, within the context of the present invention, that yeast cells containing deletion of the SPL gene (BST1) are suitable for use in evaluating the SPL activity of a polypeptide. bst1Δ cells can be generated from S. cerevisiae using standard techniques, such as PCR, as described herein. […] For such a test, a polypeptide is preferably expressed on a high-copy yeast vector (such as pYES2, which is available from Invitrogen) yielding more than 20 copies of the gene per cell. In general, a polypeptide has SPL activity if, when expressed using such a vector in a bst1Δ cell, a cellular extract results in a two-fold increase in substrate degradation over the level observed for an extract prepared from cells not expressing the polypeptide.
(§2) A further test for SPL activity may be based upon functional complementation in the bst1Δ strain. It has been found, within the context of the present invention, that bst1Δ cells are highly sensitive to D-erythro-sphingosine.
Functional complementation in yeast: Strains of interest were grown to saturation in liquid culture for 2-3 days. […] Plates were incubated at 30° C. for two days and assessed visually for differences in growth.

wildtype cells = assay: Sphingosine sensitivity (growth) of wildtype yeast; assay type: cell-based, S. cerevisiae; conditions: 10 μM sphingosine
Procedure: as §2
Functional complementation in yeast: Strains of interest were grown to saturation in liquid culture for 2-3 days. They were then resuspended in minimal medium, placed in the first row of a 96-well plate and diluted serially from 1:2 to 1:4000 across the plate. […] Louis, Mo.). […] At this concentration of NP40, no effects on cell viability are observed. Plates were incubated at 30° C. for two days and assessed visually for differences in growth.

[3] = Sply^05091 homozygous flies + 1 mM D,L-threo-DHS, separate experiment, mixed-age adults

Reduction of LCBP levels ([1]; Sply^05091 homozygotes grown in the presence of sphingosine kinase inhibitor)	C14/16 LCBPs, percentage of untreated controls [1, 3] [%*]	C14/16 LCBs, percentage of untreated controls [1, 3] [%*]	LCBP levels, % of normal levels (wild type flies) [%]	SMILES	Average flight score ([2]; Sply^05091 + 1 mM D,L-threo-DHS, score upward=3, lateral=2, downward=1, flightless=0, ±s.e.m., untreated Sply^05091 0.40 ± 0.036)	Flight performance ([2]; Sply^05091 mutants grown on media supplemented with 10 μM D,L-threo-DHS, F2 progeny)	Growth of bst1Δ cells (bst1Δ cells; concentrations as low as 10 μM sphingosine)	Proliferation of dpl1Δ strain (bst1Δ cells; media containing low concentrations of D-erythro-sphingosine)	Growth of wildtype cells (wildtype cells)
approximately 20%	81	136	20	CCCCCCCCCCCCCCC[C@H](O)[C@@H](N)CO [D,L-threo-DHS, D,L-threo-dihydrosphingosine]	0.62 ± 0.057	slight but significant improvement in flight performance			
				CCCCCCCCCCCCC/C=C/[C@@H](O)[C@@H](N)CO [D-erythro-sphingosine]			completely inhibit the growth	cannot proliferate	no effect on the growth
